Where “and” joins values, the source holds several entries; their conditions need not be identical. Identical values can stand only once. Toxic doses and inconclusive results are not listed. Rule as the data show it: active = T/C of 150% or more; inactive = T/C below 125%.
Tested on: L1210 leukemia ip in BDF1 mice, survival T/C
Assay: NCI In Vivo Anticancer Drug Screen. Data for tumor model L1210 Leukemia (intraperitoneal) in B6D2F1 (BDF1) mice
Conditions: endpoint: mean survival time, higher = longer survival
How it was run: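 Transplanted-tumor mice were given test agent; controls received vehicle only. Survival readings from the two groups were divided (treated over control).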

[1] = dose: 100.0 mg/kg/injection, schedule: Q04DX003 (ip), vehicle: Klucel (hydroxypropylcellulose) (HPC)
[2] = dose: 200.0 mg/kg/injection, schedule: Q04DX003 (ip), vehicle: Klucel (hydroxypropylcellulose) (HPC)
[3] = dose: 100.0 mg/kg/injection, schedule: Q01DX001 (ip), vehicle: saline
[4] = dose: 200.0 mg/kg/injection, schedule: Q01DX001 (ip), vehicle: saline
[5] = dose: 400.0 mg/kg/injection, schedule: Q01DX001 (ip), vehicle: saline
[6] = dose: 12.5 mg/kg/injection, schedule: Q04DX003 (ip), vehicle: Klucel (hydroxypropylcellulose) (HPC)
[7] = dose: 25.0 mg/kg/injection, schedule: Q04DX003 (ip), vehicle: Klucel (hydroxypropylcellulose) (HPC)
[8] = dose: 50.0 mg/kg/injection, schedule: Q04DX003 (ip), vehicle: Klucel (hydroxypropylcellulose) (HPC)
[9] = dose: 100.0 mg/kg/injection, schedule: Q01DX009 (ip), vehicle: Klucel (hydroxypropylcellulose) (HPC)
[10] = dose: 200.0 mg/kg/injection, schedule: Q01DX009 (ip), vehicle: Klucel (hydroxypropylcellulose) (HPC)
[11] = dose: 400.0 mg/kg/injection, schedule: Q01DX009 (ip), vehicle: Klucel (hydroxypropylcellulose) (HPC)
[12] = dose: 400.0 mg/kg/injection, schedule: Q04DX003 (ip), vehicle: Klucel (hydroxypropylcellulose) (HPC)
[13] = dose: 100.0 mg/kg/injection, schedule: Q04DX003 (ip), vehicle: saline with Tween-80
[14] = dose: 200.0 mg/kg/injection, schedule: Q04DX003 (ip), vehicle: saline with Tween-80
[15] = dose: 100.0 mg/kg/injection, schedule: Q01DX001 (ip), vehicle: carboxymethylcellulose (CMC)
[16] = dose: 400.0 mg/kg/injection, schedule: Q01DX001 (ip), vehicle: carboxymethylcellulose (CMC)

Measured: T/C

O=C(NCCCN1CC1)C(=O)NNc1ccccc1
inactive: [1] 102 % of control | [2] 93 % of control

[Co+3].[NH-]CC(=O)[O-].[NH-]CCN(CC[NH-])CC[NH-].[O-][Cl+3]([O-])([O-])O
inactive: dose: 50.0 mg/kg/injection, schedule: Q01DX001 (ip), vehicle: saline 103 % of control | [3] 100 % of control | [4] 103 % of control | [5] 105 % of control

CCCNS(=O)(=O)c1ccc(Cl)c([N+](=O)[O-])c1
inactive: [6] 100 % of control | [7] 97 % of control | [8] 100 % of control | [1] 98 % of control | [2] 103 % of control

CCc1cc(C)cc(CC)c1N
inactive: [9] 104 % of control | [10] 90 % of control

Oc1c(-c2ccccn2)cccc1C(F)(F)F
inactive: [6] 98 % of control | [7] 102 % of control | [8] 100 % of control

CO/N=C(\N)Oc1c(C)cccc1C
inactive: [9] 107 % of control | [10] 96 % of control | [11] 103 % of control

O/C(=C/C(=S)S)c1cccs1
inactive: dose: 0.78 mg/kg/injection, schedule: Q01DX009 (ip), vehicle: water 103 % of control | dose: 1.56 mg/kg/injection, schedule: Q01DX009 (ip), vehicle: water 105 % of control | dose: 3.12 mg/kg/injection, schedule: Q01DX009 (ip), vehicle: water 102 % of control | dose: 6.25 mg/kg/injection, schedule: Q01DX009 (ip), vehicle: water 95 % of control | dose: 12.5 mg/kg/injection, schedule: Q04DX003 (ip), vehicle: water 102 % of control | dose: 25.0 mg/kg/injection, schedule: Q04DX003 (ip), vehicle: water 94 % of control | dose: 50.0 mg/kg/injection, schedule: Q04DX003 (ip), vehicle: water 100 % of control

Cc1c2cnccc2c(C)c2c1c1ccccc1n2CCCC#N
inactive: [1] 105 % of control | [2] 102 % of control | [12] 109 % of control

Cc1ccc(S(=O)(=O)Nc2ccccc2OS(=O)(=O)c2ccc(C)cc2)cc1
inactive: dose: 100.0 mg/kg/injection, schedule: Q01DX001 (ip), vehicle: Klucel (hydroxypropylcellulose) (HPC) 95 % of control | [9] 106 % of control | [1] 101 % of control | dose: 200.0 mg/kg/injection, schedule: Q01DX001 (ip), vehicle: Klucel (hydroxypropylcellulose) (HPC) 89 % of control | [10] 108 % of control | [2] 100 % of control | dose: 400.0 mg/kg/injection, schedule: Q01DX001 (ip), vehicle: Klucel (hydroxypropylcellulose) (HPC) 93 % of control | [11] 106 % of control | [12] 97 % of control

CN(C)C=NC1c2ccccc2CCc2ccccc21
inactive: [9] 98 % of control | [1] 104 % of control | [10] 97 % of control | [2] 91 % of control | [11] 100 % of control | [12] 94 % of control

COC1=CC2C3=C(C(NC=O)CCc4cc(O)c(OC)c(OC)c43)C2C1=O (stereo not given)
inactive: [13] 101 % of control | [14] 93 % of control | dose: 400.0 mg/kg/injection, schedule: Q04DX003 (ip), vehicle: saline with Tween-80 108 % of control

CCCCCCCCCCCCCCCCCCNC(=O)NCCc1ccccc1
inactive: dose: 100.0 mg/kg/injection, schedule: Q04DX002 (ip), vehicle: Klucel (hydroxypropylcellulose) (HPC) 105 % of control | dose: 200.0 mg/kg/injection, schedule: Q04DX002 (ip), vehicle: Klucel (hydroxypropylcellulose) (HPC) 99 % of control | dose: 400.0 mg/kg/injection, schedule: Q04DX002 (ip), vehicle: Klucel (hydroxypropylcellulose) (HPC) 92 % of control

O=c1[nH]c(=O)c2nc[nH]c(=O)c2[nH]1
inactive: dose: 75.0 mg/kg/injection, schedule: Q01DX009 (ip), vehicle: Klucel (hydroxypropylcellulose) (HPC) 98 % of control | [1] 118 % of control | dose: 150.0 mg/kg/injection, schedule: Q01DX009 (ip), vehicle: Klucel (hydroxypropylcellulose) (HPC) 97 % of control | [2] 94 % of control | [12] 100 % of control

Nc1cc(NC(c2ccccc2)c2ccccc2)c([N+](=O)[O-])c(N)n1
inactive: dose: 100.0 mg/kg/injection, schedule: Q01DX001 (ip), vehicle: saline with Tween-80 98 % of control | dose: 200.0 mg/kg/injection, schedule: Q01DX001 (ip), vehicle: saline with Tween-80 98 % of control | dose: 400.0 mg/kg/injection, schedule: Q01DX001 (ip), vehicle: saline with Tween-80 93 % of control

Cc1cc(CCN)c(C)c2c1sc1ccccc12
inactive: dose: 75.0 mg/kg/injection, schedule: Q01DX001 (ip), vehicle: saline 89 % of control

CCc1nc(N[N+](=O)[O-])nc(CC)c1-c1ccc([N+](=O)[O-])cc1O
inactive: dose: 100.0 mg/kg/injection, schedule: Q04DX002 (ip), vehicle: saline with Tween-80 97 % of control | dose: 200.0 mg/kg/injection, schedule: Q04DX002 (ip), vehicle: saline with Tween-80 87 % of control | dose: 400.0 mg/kg/injection, schedule: Q04DX002 (ip), vehicle: saline with Tween-80 95 % of control

CC(=O)c1cccc(OC(=O)Nc2ccc(C)cc2)c1
inactive: dose: 100.0 mg/kg/injection, schedule: Q01DX001 (ip), vehicle: gum acacia 89 % of control | dose: 100.0 mg/kg/injection, schedule: Q01DX009 (ip), vehicle: gum acacia 95 % of control and 88 % of control | dose: 100.0 mg/kg/injection, schedule: Q04DX003 (ip), vehicle: gum acacia 98 % of control and 100 % of control | dose: 200.0 mg/kg/injection, schedule: Q01DX001 (ip), vehicle: gum acacia 100 % of control | dose: 200.0 mg/kg/injection, schedule: Q01DX009 (ip), vehicle: gum acacia 98 % of control and 105 % of control | dose: 200.0 mg/kg/injection, schedule: Q04DX003 (ip), vehicle: gum acacia 93 % of control and 90 % of control | dose: 400.0 mg/kg/injection, schedule: Q01DX001 (ip), vehicle: gum acacia 90 % of control | dose: 400.0 mg/kg/injection, schedule: Q01DX009 (ip), vehicle: gum acacia 98 % of control and 109 % of control | dose: 400.0 mg/kg/injection, schedule: Q04DX003 (ip), vehicle: gum acacia 97 % of control and 103 % of control

CN(C)CCCN1CCC2(CCC(CO)CC2)CC1
inactive: [3] 94 % of control | [4] 94 % of control | [5] 102 % of control

O=c1[nH]c2ccccc2c2ccc(Cl)cc12
inactive: [15] 103 % of control | dose: 200.0 mg/kg/injection, schedule: Q01DX001 (ip), vehicle: carboxymethylcellulose (CMC) 100 % of control | [16] 102 % of control

N#Cc1cccc(C[P+](c2ccccc2)(c2ccccc2)c2ccccc2)c1
inactive: dose: 12.5 mg/kg/injection, schedule: Q01DX009 (ip), vehicle: Klucel (hydroxypropylcellulose) (HPC) 100 % of control | [6] 111 % of control | dose: 25.0 mg/kg/injection, schedule: Q01DX009 (ip), vehicle: Klucel (hydroxypropylcellulose) (HPC) 102 % of control | [7] 111 % of control | [8] 100 % of control

CCCCCCCCCCOC(=O)C[n+]1cccc(C(N)=O)c1
inactive: dose: 12.5 mg/kg/injection, schedule: Q04DX003 (ip), vehicle: saline 96 % of control | dose: 25.0 mg/kg/injection, schedule: Q04DX003 (ip), vehicle: saline 102 % of control | dose: 50.0 mg/kg/injection, schedule: Q04DX003 (ip), vehicle: saline 93 % of control

c1ccc([P+](CC2CCCO2)(c2ccccc2)c2ccccc2)cc1 (stereo not given)
inactive: [3] 113 % of control

CC(=O)C(C)(C)/C(C)=C/C(=O)O
inactive: [9] 95 % of control | [1] 100 % of control | [10] 95 % of control | [2] 100 % of control | [11] 98 % of control | [12] 97 % of control

CCCCCCCCCCCCCCCC(S(=O)(=O)CC)S(=O)(=O)CC
inactive: [1] 93 % of control | [2] 97 % of control | [12] 87 % of control

CC(C)(C)CC(C)(C)CC(C)(C)NCCCN
inactive: dose: 12.5 mg/kg/injection, schedule: Q01DX009 (ip), vehicle: saline with Tween-80 102 % of control | dose: 25.0 mg/kg/injection, schedule: Q01DX009 (ip), vehicle: saline with Tween-80 93 % of control | dose: 25.0 mg/kg/injection, schedule: Q04DX003 (ip), vehicle: saline with Tween-80 90 % of control | dose: 50.0 mg/kg/injection, schedule: Q04DX003 (ip), vehicle: saline with Tween-80 97 % of control | [13] 96 % of control

Nc1nc(N)nc(CCCCCc2nc(N)nc(N)n2)n1
inactive: dose: 50.0 mg/kg/injection, schedule: Q01DX001 (ip), vehicle: carboxymethylcellulose (CMC) 93 % of control | [15] 93 % of control | [16] 95 % of control

O=C1c2ccccc2C(=O)N1CN1C(=O)c2ccccc2C1=O
inactive: [13] 88 % of control | [14] 91 % of control

From PubChem BioAssay AID248 (DTP/NCI, 2004)
